Assay results as given in patent US4025508A, “6-(Trifluoromethyl)-benzothiadiazines” (Serdex - Societe d'Etudes, de Recherches, de Diffusion et …, priority 1973, dated 1977).

Columns and labels:
glycemia [1] = assay: Hyperglycemia-producing activity, tests in dogs (glycemia); assay type: in vivo, dog; settings: p.o.
[2] = test system: cardiovascular parameters; assay: Cardiovascular parameters (blood pressures, cardiac rhythm) in anesthetized dogs; assay type: in vivo, dog; settings: 100 mg/kg, p.o.
glycemia [3] = assay: Hyperglycemia-producing activity, tests in rats (glycemia); assay type: in vivo, rat (adult white rats)
Protocol: The following test methods were used to determine the hyperglycemia-producing activity:
The experiments were conducted in adult white rats weighing 200 g+ 10 g.
The products were administered as a suspension in gummy julep, by stomach tube, at dosages of 10, 20 and 100 mg/kg, p.o.
At each dosage level, and in each case, lots of 10 test animals (5 male and 5 female) and of 10 reference animals (5 male and 5 female, administered only the gummy Julep) were used.
Blood samples were taken by cardiac puncture, at times 15, 60 minutes and 2, 4 and 24 hours after administration of the products, and the glycemia was determined.

[4] = Acute toxicity (LD50 /24 hours); settings: in vivo, po

SMILES: O=S1(=O)NC=Nc2cc(C(F)(F)F)c(F)cc21 [Example 1, 6-trifluoromethyl-7-fluoro-2H-1,2,4-benzothiadiazine-1,1-dioxide]
- increase of the glycemia (glycemia [1]; 100 mg/kg): about 25%
- action on the glycemia (glycemia [1]; 10 or 20 mg/kg): no significant action
- action on the cardiac rhythm [2]: nor on the cardiac rhythm
- action on the diastolic pressure [2]: no significant action
- action on the differential pressure [2]: no significant action
- action on the mean pressure [2]: no significant action
- action on the systolic pressure [2]: no significant action
- glycemia after administration (glycemia [3]; 100 mg/kg p.o., twenty-four hours after administration, from 0.839± 0.042 g/l): 1.212 ± 0.041 g/L
- action on the glycemia (glycemia [3]; 10 or 20 mg/kg, p.o.): no significant action
- LD50 at 24 h [4]: 3230 mg/kg
